Assay results from patent US8455553B2, “Methods and compositions for prevention and treatment of inflammatory disease, autoimmune disease and transplant rejection” (The Regents of the University of California, priority 2001, dated 2013).
“Also recorded” adds a separate entry of the source. Like-named read-outs stand apart in the source and are kept apart here.

Assays:
tyrosine kinase Syk = conditions: Geahlen, et al. (1989); cited from earlier work
[1] = tested on: endotoxic shock induced by intraperitoneal injection of 1 μg LPS in the presence of 20 mg D-galactosamine in laboratory mice; assay: Endotoxic shock, low dose model (1 μg LPS + D-Gal), lethality; type: in vivo; conditions: for Mortality, percent dead: Table 3, Low Dose Model (1 μg LPS + D-Gal); for Mortality caused by septic shock: intraperitoneal administration prior to LPS challenge (Table 3)
Method: Endotoxic shock was induced by intraperitoneal injection of 1 μg LPS into laboratory mice in the presence of 20 mg D-galactosamine (D-Gal). This regimen leads to a 90-100% lethality rate by 9-12 hours post injection. The following data in Tables 1-3 reports the mortality rate over 28 days of observation. In one experiment, animals were treated intra peritoneally with piceatannol. […]

[2] = cited from earlier work
tyrosine kinase Tyk2 = tyrosine kinase Tyk2 (Homo sapiens, UniProt P29597); conditions: Su, et al. (2000); cited from earlier work
tyrosine kinase Tyk2, sequence (P29597 whole entry): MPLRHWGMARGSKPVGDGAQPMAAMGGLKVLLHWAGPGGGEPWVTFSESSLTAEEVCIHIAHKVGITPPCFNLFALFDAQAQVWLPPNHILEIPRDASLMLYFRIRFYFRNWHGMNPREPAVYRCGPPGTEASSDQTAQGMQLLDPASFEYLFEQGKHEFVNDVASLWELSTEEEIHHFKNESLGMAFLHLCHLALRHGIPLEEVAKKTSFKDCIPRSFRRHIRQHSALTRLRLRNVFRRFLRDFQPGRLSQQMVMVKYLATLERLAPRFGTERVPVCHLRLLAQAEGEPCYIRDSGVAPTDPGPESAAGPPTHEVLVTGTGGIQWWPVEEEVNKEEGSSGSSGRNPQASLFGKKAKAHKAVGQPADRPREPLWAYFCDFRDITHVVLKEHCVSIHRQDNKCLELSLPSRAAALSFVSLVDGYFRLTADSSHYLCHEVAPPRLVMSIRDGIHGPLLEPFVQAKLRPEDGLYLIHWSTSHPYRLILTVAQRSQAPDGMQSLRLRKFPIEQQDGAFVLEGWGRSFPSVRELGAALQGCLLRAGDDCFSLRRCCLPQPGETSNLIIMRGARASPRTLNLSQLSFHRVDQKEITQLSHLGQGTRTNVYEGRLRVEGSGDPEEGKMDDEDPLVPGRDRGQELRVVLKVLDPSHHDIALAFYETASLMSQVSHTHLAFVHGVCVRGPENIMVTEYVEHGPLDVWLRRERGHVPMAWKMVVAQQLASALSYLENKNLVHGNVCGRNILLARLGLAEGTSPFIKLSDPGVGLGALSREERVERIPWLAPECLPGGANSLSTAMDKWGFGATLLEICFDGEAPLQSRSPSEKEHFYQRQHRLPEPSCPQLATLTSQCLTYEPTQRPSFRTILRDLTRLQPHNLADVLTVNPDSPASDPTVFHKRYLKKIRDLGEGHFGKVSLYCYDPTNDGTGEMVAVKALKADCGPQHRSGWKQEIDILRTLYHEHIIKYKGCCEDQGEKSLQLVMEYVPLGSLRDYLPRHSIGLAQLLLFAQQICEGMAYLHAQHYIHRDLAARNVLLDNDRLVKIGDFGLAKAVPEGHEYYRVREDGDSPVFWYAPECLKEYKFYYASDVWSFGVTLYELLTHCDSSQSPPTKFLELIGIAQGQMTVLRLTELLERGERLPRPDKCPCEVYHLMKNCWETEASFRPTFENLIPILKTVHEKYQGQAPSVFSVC

[3] = tested on: mice that had received piceatannol alone; assay: Toxicity of piceatannol alone in mice; type: in vivo; conditions: for Lethality rate: no LPS
Method: (§1) Endotoxic shock was induced by intraperitoneal injection of 1 μg LPS into laboratory mice in the presence of 20 mg D-galactosamine (D-Gal). This regimen leads to a 90-100% lethality rate by 9-12 hours post injection. The following data in Tables 1-3 reports the mortality rate over 28 days of observation. In one experiment, animals were treated intra peritoneally with piceatannol.

TNFα = assay: Production of TNFα in response to LPS in vitro; type: cell-based
tyrosine kinase ZAP70 = target: T1, tyrosine kinase ZAP70 (Homo sapiens, UniProt P43403); conditions: Geahlen, et al. (1989); cited from earlier work
T1 sequence (P43403 1-619): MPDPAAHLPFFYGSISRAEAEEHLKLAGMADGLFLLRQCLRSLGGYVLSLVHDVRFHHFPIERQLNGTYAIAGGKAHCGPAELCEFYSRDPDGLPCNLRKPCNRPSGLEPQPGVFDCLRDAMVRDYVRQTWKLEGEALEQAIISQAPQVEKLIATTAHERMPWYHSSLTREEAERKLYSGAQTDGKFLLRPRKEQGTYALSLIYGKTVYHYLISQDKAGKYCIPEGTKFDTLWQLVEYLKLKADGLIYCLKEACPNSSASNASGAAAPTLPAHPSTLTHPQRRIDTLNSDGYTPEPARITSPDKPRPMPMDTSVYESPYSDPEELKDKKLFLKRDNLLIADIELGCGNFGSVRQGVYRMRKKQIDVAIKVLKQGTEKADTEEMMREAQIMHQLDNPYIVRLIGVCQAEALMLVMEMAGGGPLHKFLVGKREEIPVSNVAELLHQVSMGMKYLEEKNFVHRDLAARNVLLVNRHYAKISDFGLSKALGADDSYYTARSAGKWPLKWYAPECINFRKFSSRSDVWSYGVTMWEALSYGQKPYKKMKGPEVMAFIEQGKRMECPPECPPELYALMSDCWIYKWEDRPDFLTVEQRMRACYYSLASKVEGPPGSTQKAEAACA

[4] = tested on: septic shock induced by 1000 μg LPS intraperitoneally in mice; assay: Septic shock, high dose model (1000 μg LPS), lethality; type: in vivo; conditions: for Mortality, percent dead: Table 3, High Dose Model (1000 μg LPS), 1000 μM pre, 500 μM SC post every 12; for Mortality caused by septic shock: intraperitoneal administration prior to LPS challenge coupled with subcutaneous administration following LPS challenge (Table 3)
Method: as §1
In another experiment, 1 mg of LPS was administered intraperitoneally. Piceatannol or tetramethoxy-piceatannol (TMP) were administered intraperitoneally prior to LPS treatment, with some mice receiving subcutaneous doses of either piceatannol or TMP following LPS administration.

[5] = tested on: LPS induced gene expression (RANTES, MCP-1, ISG54, TNF); assay: LPS induced gene expression (interferon regulated genes) in vitro; type: cell-based
IL-6 = assay: Production of IL-6 in response to LPS in vitro; type: cell-based
Ovalbumin immunized mice = assay: Ovalbumin asthma model, cell infiltration in bronchioalveolar lavage fluid; type: in vivo; conditions: 1 mg i.p. daily, FIG. 11
Method: Mice (8 animals) were immunized by intraperitoneal (i.p.) injection of Ovalbumin after 2 weeks, The OA solution was administered into the nasal passage by inhalation without (4) or with (4) concurrent piceatannol regimen (1 mg i.p. daily).

[6] = tested on: MBP-TCR+/STAT1- mice developing spontaneous paralysis; assay: Experimental autoimmune encephalomyelitis (EAE), model for multiple sclerosis; type: in vivo
Excerpt: Experimental autoimmune encephalomyelitis (EAE) represents a murine model for multiple sclerosis, a TH1 cells mediated demyelinating autoimmune disorder. In this modes, STAT1-deficient mice (Jackson Laboratories, Maine, USA) were crossed with mice carrying a tansgenic T cell receptor against Myelin Basis Protein (MBP) [Lafaille et al. (1994) Cell 78(3):399-408]. The resulting MBP-TCR^+/STAT1^− mice, when on an H2b/u or H2u/u background develop spontaneous paralysis. Typically, in this transgenic system, the disease progresses from early signs of hind leg paralysis (level 2) to the moribund stage of lethal paralysis (level 5) within 4-5 days.
Three mice showing clear signs of hind leg paralysis were injected s.c. with 1 mg piceatannol every 48 hours (FIG. 10). Under this regimen these animals survived for 30 days, at which time piceatannol administration was stopped.

Oc1cc(O)cc(/C=C/c2ccc(O)c(O)c2)c1 [Piceatannol, 3,3′,4,5′-tetrahydroxy-trans-stilbene]
Inhibition of tyrosine kinase Syk (tyrosine kinase Syk): inhibitor | Lethality rate ([1]; Table 1, LPS 1 μg (+D-Gal) ip, piceatannol 250 μg ip, 28 days of observation): 5/12 | Lethality rate ([1]; Table 1, LPS 1 μg (+D-Gal) ip, piceatannol 500 μg ip, 28 days of observation): 0/8 | Lethality rate ([1]; Table 2, LPS + D-Gal 1 μg ip, piceatannol 250 μg (ip)): 3/8 | Lethality rate ([1]; Table 2, LPS + D-Gal 1 μg ip, piceatannol 250 μg (iv) + 250 μg (ip)): 0/6 | Lethality rate ([1]; Table 2, LPS + D-Gal 1 μg ip, piceatannol 400 μg (ip)): 0/2 | Mortality, percent dead ([1]; 400 μM ip prior to LPS): 48% | Mortality, percent dead ([1]; 1000 μM ip prior to LPS): 35% | Animals rescued ([1]; administration several hours after LPS challenge, animal model of sepsis): approximately 50% | Protection against endotoxic shock ([1]; combined intravenous and intraperitoneal administration): up to 100% | Mortality caused by septic shock [1]: significantly reducing mortality | Death associated with endotoxic shock ([1]; single administration by either the intravenous or intraperitoneal route): significantly reduced death | Protection against endotoxic shock ([1]; single administration, animal model of sepsis): up to 100% | Water solubility [2]: partially water soluble | Water solubility ([2]; listed as piceatannol): water soluble | Inhibition of tyrosine kinase Tyk2 (tyrosine kinase Tyk2): potent inhibitor | Lethality rate ([3]; Table 1, piceatannol 1000 μg intraperitoneal, dead/total, 28 days of observation): 0/8 | Lethality rate ([3]; Table 2, piceatannol 1000 μg (ip)): 0/6 | Lethality rate ([3]; Table 2, piceatannol 1000 μg (iv)): 0/2 | Toxicity in vivo (overall statement) ([3]; data of Tables 1 and 2 / Examples 1 and 3): very low toxicity; also recorded: low toxicity | Acute or chronic toxicity ([3]; healthy animals, repeated high dose (1 mg) intraperitoneal injections): did not detect any acute or chronic toxicity | Acute toxicity (within 2 hours post-injection) ([3]; piceatannol alone, up to 1 mg intraperitoneal or intravenously): no signs of acute (i.e., within 2 hours post-injection) toxicity | Delayed toxicity ([3]; with or without subsequent LPS injection, monitored for several weeks): no signs of delayed toxicity | Production of TNFα in response to LPS (TNFα): inhibited | Inhibition of tyrosine kinase ZAP70 (tyrosine kinase ZAP70): inhibitor | Lethality rate ([4]; Table 1, LPS 1000 μg ip, piceatannol 500 → 1000 μg ip, 28 days of observation): 3/8 | Mortality, percent dead [4]: 50% | Mortality caused by septic shock [4]: significantly reduced mortality | Concentration that blocks LPS induced gene expression (e.g., RANTES, MCP-1, TNF) [5]: micromolar range | Concentration that blocks LPS induced gene expression (e.g., RANTES, MCP-1, ISG54) ([5]; in vitro): micromolar concentrations; also recorded: micromolar range | Production of IL-6 in response to LPS (IL-6): inhibited | Eosinophils infiltration into the lungs (Ovalbumin immunized mice): significant reduction | Lymphocytes infiltration into the lungs (Ovalbumin immunized mice): significant reduction | Time to complete paralysis and death after administration was stopped ([6]; after 30 days of 1 mg s.c. every 48 hours): Ten | Disease progression ([6]; for the duration of administration, 1 mg s.c. every 48 hours): completely halted disease progression | Survival under treatment ([6]; three mice with hind leg paralysis, 1 mg s.c. every 48 hours, administration stopped at that time): 30 days

COc1cc(/C=C/c2ccc(OC)c(OC)c2)cc(OC)c1 [TMP, tetramethoxy-piceatannol]
Mortality, percent dead ([1]; 1000-1250 μM ip prior to LPS): 38% | Mortality caused by septic shock [1]: significantly reducing mortality | Mortality, percent dead [4]: 44% | Mortality caused by septic shock [4]: significantly reduced mortality | Inhibition of LPS-mediated ISG induction, compared with piceatannol ([5]; in vitro): as effective as piceatannol

Oc1ccc(/C=C/c2cc(O)cc(O)c2)cc1 [resveratrol, trihydroxy-stilbene]
Water solubility [2]: water soluble
